Experimental data taken from PubChem BioAssay (NCI).
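The compound was tested at five concentrations on cells cultured in 96-well plates, with a 48-hour exposure period. TGI marks complete inhibition of growth.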

Assays:
Experiment in all cases: growth of human tumour cells (NCI), 48 h
OVCAR-8 ovarian = test system: OVCAR-8 ovarian
XF 498 CNS = test system: XF 498 CNS
786-0 renal = test system: 786-0 renal
OVCAR-5 ovarian = test system: OVCAR-5 ovarian
KM12 colon = test system: KM12 colon
K-562 leukemia = test system: K-562 leukemia
HOP-62 NSCLC = test system: HOP-62 NSCLC
SF-539 CNS = test system: SF-539 CNS
SK-MEL-28 melanoma = test system: SK-MEL-28 melanoma
SK-MEL-5 melanoma = test system: SK-MEL-5 melanoma
UACC-62 melanoma = test system: UACC-62 melanoma
SF-268 CNS = test system: SF-268 CNS
OVCAR-4 ovarian = test system: OVCAR-4 ovarian
M19-MEL melanoma = test system: M19-MEL melanoma
KM20L2 colon = test system: KM20L2 colon
RPMI-8226 leukemia = test system: RPMI-8226 leukemia
UACC-257 melanoma = test system: UACC-257 melanoma
SNB-75 CNS = test system: SNB-75 CNS
CAKI-1 renal = test system: CAKI-1 renal
HOP-18 NSCLC = test system: HOP-18 NSCLC
SK-MEL-2 melanoma = test system: SK-MEL-2 melanoma
RXF 393 renal = test system: RXF 393 renal
NCI-H460 lung = test system: NCI-H460 lung
DMS 273 small cell lung = test system: DMS 273 small cell lung
NCI-H23 lung = test system: NCI-H23 lung
ACHN renal = test system: ACHN renal
SNB-78 CNS = test system: SNB-78 CNS
HCT-15 colon = test system: HCT-15 colon
A549 NSCLC = test system: A549 NSCLC
SF-295 CNS = test system: SF-295 CNS
DLD-1 colon = test system: DLD-1 colon
A498 renal = test system: A498 renal
HCT-116 colon = test system: HCT-116 colon
HOP-92 NSCLC = test system: HOP-92 NSCLC
SNB-19 CNS = test system: SNB-19 CNS
SW-620 colon = test system: SW-620 colon
EKVX NSCLC = test system: EKVX NSCLC
U251 CNS = test system: U251 CNS
SN12C renal = test system: SN12C renal
OVCAR-3 ovarian = test system: OVCAR-3 ovarian
MALME-3M melanoma = test system: MALME-3M melanoma
COLO 205 colon = test system: COLO 205 colon
TK-10 renal = test system: TK-10 renal
HT29 colon = test system: HT29 colon
DMS 114 small cell lung = test system: DMS 114 small cell lung
IGROV1 ovarian = test system: IGROV1 ovarian
LOX IMVI melanoma = test system: LOX IMVI melanoma
NCI-H226 lung = test system: NCI-H226 lung
MOLT-4 leukemia = test system: MOLT-4 leukemia
NCI-H522 lung = test system: NCI-H522 lung
CCRF-CEM leukemia = test system: CCRF-CEM leukemia
UO-31 renal = test system: UO-31 renal
M14 melanoma = test system: M14 melanoma
SK-OV-3 ovarian = test system: SK-OV-3 ovarian
HL-60(TB) leukemia = test system: HL-60(TB) leukemia
HCC-2998 colon = test system: HCC-2998 colon
LXFL 529 NSCLC = test system: LXFL 529 NSCLC
SR leukemia = test system: SR leukemia

Structure (SMILES): CC(C)(C)N=CN1CCC(C(c2ccccc2)c2ccccc2)CC1
- TGI (OVCAR-8 ovarian): > 100 µM
- TGI (XF 498 CNS): > 100 µM
- TGI (786-0 renal): > 100 µM
- TGI (OVCAR-5 ovarian): > 100 µM
- TGI (KM12 colon): > 100 µM
- TGI (K-562 leukemia): > 100 µM
- TGI (HOP-62 NSCLC): > 100 µM
- TGI (SF-539 CNS): > 100 µM
- TGI (SK-MEL-28 melanoma): > 100 µM
- TGI (SK-MEL-5 melanoma): > 100 µM
- TGI (UACC-62 melanoma): > 100 µM
- TGI (SF-268 CNS): > 100 µM
- TGI (OVCAR-4 ovarian): > 100 µM
- TGI (M19-MEL melanoma): > 100 µM
- TGI (KM20L2 colon): 32.2 µM
- TGI (RPMI-8226 leukemia): > 100 µM
- TGI (UACC-257 melanoma): > 100 µM
- TGI (SNB-75 CNS): > 100 µM
- TGI (CAKI-1 renal): > 100 µM
- TGI (HOP-18 NSCLC): > 100 µM
- TGI (SK-MEL-2 melanoma): > 100 µM
- TGI (RXF 393 renal): 98.7 µM
- TGI (NCI-H460 lung): > 100 µM
- TGI (DMS 273 small cell lung): > 100 µM
- TGI (NCI-H23 lung): > 100 µM
- TGI (ACHN renal): > 100 µM
- TGI (SNB-78 CNS): > 100 µM
- TGI (HCT-15 colon): > 100 µM
- TGI (A549 NSCLC): > 100 µM
- TGI (SF-295 CNS): > 100 µM
- TGI (DLD-1 colon): > 100 µM
- TGI (A498 renal): > 100 µM
- TGI (HCT-116 colon): > 100 µM
- TGI (HOP-92 NSCLC): > 100 µM
- TGI (SNB-19 CNS): > 100 µM
- TGI (SW-620 colon): > 100 µM
- TGI (EKVX NSCLC): > 100 µM
- TGI (U251 CNS): > 100 µM
- TGI (SN12C renal): > 100 µM
- TGI (OVCAR-3 ovarian): > 100 µM
- TGI (MALME-3M melanoma): 35.6 µM
- TGI (COLO 205 colon): 34.2 µM
- TGI (TK-10 renal): > 100 µM
- TGI (HT29 colon): 56.5 µM
- TGI (DMS 114 small cell lung): > 100 µM
- TGI (IGROV1 ovarian): > 100 µM
- TGI (LOX IMVI melanoma): > 100 µM

Structure (SMILES): Cc1ccc(C)c(NC(=O)/C(=N\NC(N)=S)C(C#N)c2ccccc2)c1 (configuration not stated)
- TGI (NCI-H226 lung): > 100 µM
- TGI (OVCAR-8 ovarian): > 100 µM
- TGI (XF 498 CNS): > 100 µM
- TGI (786-0 renal): > 100 µM
- TGI (OVCAR-5 ovarian): > 100 µM
- TGI (MOLT-4 leukemia): > 100 µM
- TGI (KM12 colon): > 100 µM
- TGI (K-562 leukemia): > 100 µM
- TGI (HOP-62 NSCLC): > 100 µM
- TGI (SF-539 CNS): > 100 µM
- TGI (SK-MEL-28 melanoma): > 100 µM
- TGI (NCI-H522 lung): > 100 µM
- TGI (SK-MEL-5 melanoma): > 100 µM
- TGI (UACC-62 melanoma): > 100 µM
- TGI (CCRF-CEM leukemia): > 100 µM
- TGI (SF-268 CNS): > 100 µM
- TGI (OVCAR-4 ovarian): > 100 µM
- TGI (M19-MEL melanoma): > 100 µM
- TGI (KM20L2 colon): > 100 µM
- TGI (UO-31 renal): > 100 µM
- TGI (RPMI-8226 leukemia): > 100 µM
- TGI (UACC-257 melanoma): > 100 µM
- TGI (SNB-75 CNS): > 100 µM
- TGI (CAKI-1 renal): > 100 µM
- TGI (HOP-18 NSCLC): > 100 µM
- TGI (SK-MEL-2 melanoma): > 100 µM
- TGI (M14 melanoma): > 100 µM
- TGI (SK-OV-3 ovarian): > 100 µM
- TGI (NCI-H460 lung): > 100 µM
- TGI (DMS 273 small cell lung): > 100 µM
- TGI (NCI-H23 lung): > 100 µM
- TGI (HL-60(TB) leukemia): > 100 µM
- TGI (ACHN renal): > 100 µM
- TGI (HCT-15 colon): > 100 µM
- TGI (A549 NSCLC): > 100 µM
- TGI (SF-295 CNS): > 100 µM
- TGI (DLD-1 colon): > 100 µM
- TGI (A498 renal): > 100 µM
- TGI (HCT-116 colon): > 100 µM
- TGI (HOP-92 NSCLC): > 100 µM
- TGI (SNB-19 CNS): > 100 µM
- TGI (SW-620 colon): > 100 µM
- TGI (HCC-2998 colon): > 100 µM
- TGI (EKVX NSCLC): > 100 µM
- TGI (U251 CNS): > 100 µM
- TGI (SN12C renal): > 100 µM
- TGI (LXFL 529 NSCLC): > 100 µM
- TGI (OVCAR-3 ovarian): > 100 µM
- TGI (SR leukemia): > 100 µM
- TGI (MALME-3M melanoma): > 100 µM
- TGI (COLO 205 colon): > 100 µM
- TGI (TK-10 renal): > 100 µM
- TGI (HT29 colon): > 100 µM
- TGI (DMS 114 small cell lung): > 100 µM
- TGI (IGROV1 ovarian): > 100 µM
